Results as given in publication PMC8385015, “Tumour-on-chip microfluidic platform for assessment of drug pharmacokinetics and treatment response” (Communications Biology, 2021).
Values joined by “and” are separate entries in the source; they are usually repeats but may differ in a detail not shown here. Equal values may be shown once.

Tests used:
SW620 spheroids [1] = assay: SW620 spheroid size/volume, microfluidic Ibidi chip mimicking mouse PK profile; format: cell-based
Protocol: Spheroid images were taken for each experimental endpoint (day 7) using a Leica DMI4000B microscope (Leica Microsystems) with brightfield (BF), phase-contrast and fluorescence filters. Each flow line used two chips, one for viability assays and second for immunofluorescence. Both chips were imaged in BF prior spheroid recovery. Hardware embedded microscope scale has been translated in Fiji ImageJ to evaluate spheroid area/volume. The average size for SW620 spheroids was evaluated by measuring spheroid projection area in bright-field images, based on a macro script designed in an open-source imaging software (Fiji ImageJ) (Supplementary Method 1). Spheroid volume was evaluated following radius deduction from the measured area.

[2] = In vivo PK profile determination in mouse plasma (LC-MS/MS, population-based PK model); conditions: for In vivo drug free concentrations: SN38 after irinotecan 50 mg/kg
Protocol: The samples were collected at 5, 15, 40 min, and 1, 2, 4, 6, 8 and 24 h.
Whole blood was mixed 1:5 with PBS and centrifuged at 1500×g for 3 min at 4 °C, and the plasma was extracted and frozen at –80 °C.
Using this PK model, a time course of free plasma concentrations of both drugs was simulated (Table 1).
Acidified acetonitrile ([…]) was added with the internal standard, followed by centrifugation at 3000 rpm for 10 min. Supernatant ([…]) was then removed to a clean plate and dried under nitrogen. […]
Supplementary Method 8. Pharmacokinetic models parameters used for simulations
AZD156 PK model and PK parameters used for simulations

SW620 spheroids [3] = assay: SW620 spheroid viability (CellTiterGlo), static plate format; format: cell-based; conditions: 6 days
Protocol: In microfluidic Ibidi chip, tumour spheroids were exposed to eight different concentrations in a gradient fashion mimicking the in vivo pharmacokinetic profile and treatment schedule for both drugs. c Spheroids were imaged in situ (plate/chip) at the end of the treatment and their volumes calculated from average radius deducted from min/max Feret. d Spheroid viability was measured at the end of the treatment by CellTiterGlo assay (d). N = 6 per condition from two independent experiments. Box-plots show median (centre line); box limits are 25th to 75th percentile; whiskers represent min and max values. Statistical analysis was performed using 1-way ANOVA.
From the same experimental setup, we explored SW620 spheroid viability at 6 days for static and microfluidic setup (Fig. 2d).
Compounds were dispensed in each well using an automated HP D300 digital dispenser (Tecan, UK).
Spheroid viability assessment used a metabolic method (CellTiterGlo 3D, G9681, Promega) by measuring luminescence units expressed by individually recovered spheroids. […] CellTiterGlo vial was allowed to thaw (1 h, room temperature) and 25 µL reagent were added to each spheroid well. […] Luminescence levels were measured using a SpectraMax i3X (Molecular Devices, USA).

In the case of `CCc1c2c(nc3ccc(O)cc13)-c1cc3c(c(=O)n1C2)COC(=O)[C@]3(O)CC` [SN38], the “spheroid size at day 6, fold increase in size over day 1” value (SW620 spheroids [1]; Microfluidic Ibidi chip, PK-profile exposure, 6 days, single spheroids (Fig 2c raw data)) is reported as 2.9097 and 2.688 and 2.723 and 2.5658, the “spheroid volume as percentage of untreated control” value (SW620 spheroids [1]; microfluidic chip, SN38 mono (1d), day 7) is reported as 55% and the “In vivo drug free concentrations” value ([2]; mouse plasma, time 1 h) is reported as 5.5 nM. For the same molecule, the “In vivo drug free concentrations” value ([2]; mouse plasma, time 2 h) was 4.7 nM, the “In vivo drug free concentrations” value ([2]; mouse plasma, time 3 h) was 4.4 nM and the “In vivo drug free concentrations” value ([2]; mouse plasma, time 4 h) was 4.1 nM. For the same molecule, the “In vivo drug free concentrations” value ([2]; mouse plasma, time 5 h) was 3.6 nM, the “In vivo drug free concentrations” value ([2]; mouse plasma, time 6 h) was 3.1 nM and the “In vivo drug free concentrations” value ([2]; mouse plasma, time 7 h) was 2.8 nM. The “In vivo drug free concentrations” value ([2]; mouse plasma, time 8 h) was 2.4 nM, the “In vivo drug free concentrations” value ([2]; mouse plasma, time 9 h) was 2.1 nM and the “In vivo drug free concentrations” value ([2]; mouse plasma, time 10 h) was 1.9 nM. For the same molecule, the “In vivo drug free concentrations” value ([2]; mouse plasma, time 11 h) was 1.7 nM, the “In vivo drug free concentrations” value ([2]; mouse plasma, time 12 h) was 1.6 nM and the “In vivo drug free concentrations” value ([2]; mouse plasma, time 13 h) was 1.5 nM. For the same molecule, the “In vivo drug free concentrations” value ([2]; mouse plasma, time 14 h) was 1.4 nM, the “In vivo drug free concentrations” value ([2]; mouse plasma, time 15 h) was 1.2 nM and the “In vivo drug free concentrations” value ([2]; mouse plasma, time 16 h) was 1.1 nM. The “In vivo drug free concentrations” value ([2]; mouse plasma, time 17 h) was 1.1 nM, the “In vivo drug free concentrations” value ([2]; mouse plasma, time 18 h) was 0.9 nM and the “In vivo drug free concentrations” value ([2]; mouse plasma, time 19 h) was 0.9 nM. The “In vivo drug free concentrations” value ([2]; mouse plasma, time 20 h) was 0.8 nM, the “In vivo drug free concentrations” value ([2]; mouse plasma, time 21 h) was 0.7 nM and the “In vivo drug free concentrations” value ([2]; mouse plasma, time 22 h) was 0.7 nM. The “In vivo drug free concentrations” value ([2]; mouse plasma, time 23 h) was 0.6 nM, the “In vivo drug free concentrations” value ([2]; mouse plasma, time 24 h) was 0.6 nM and the “in vivo average measured concentration” value ([2]; mouse plasma, between 2-4h from treatment onset) was 4.36 nM. The Cmax ([2]; read-out: maximum mouse plasma concentration (Cmax), 50 mg/kg irinotecan (SN38), 10 mg/kg AZD0156) was 5.5 nM, the spheroid viability (SW620 spheroids [3]; Static plate format, CellTiterGlo, replicates (Fig 2d raw data), unit not given) was 36.02 and 31.7 and 39.52 and the “reduction in spheroid viability” value (SW620 spheroids [3]; static, continuous exposure) was ~ 60%.
